Laboratory results reported in ChEMBL document CHEMBL3085700 (J Med Chem, 2013).
The source made the active and inactive calls. The calls are words filed in the database; no cut-off is given here.

Key:
[1] = molecular target: T1, Monoglyceride lipase (Homo sapiens) (UniProt Q99685); test: Inhibition of human recombinant MAGL overexpressed in HEK cells using 2-AG as substrate at 10 uM preincubated for 10 mins before substrate addition measured after 10 mins by HPLC analysis relative to control; assay type: cell-based; details: HEK293
T1 sequence (whole entry): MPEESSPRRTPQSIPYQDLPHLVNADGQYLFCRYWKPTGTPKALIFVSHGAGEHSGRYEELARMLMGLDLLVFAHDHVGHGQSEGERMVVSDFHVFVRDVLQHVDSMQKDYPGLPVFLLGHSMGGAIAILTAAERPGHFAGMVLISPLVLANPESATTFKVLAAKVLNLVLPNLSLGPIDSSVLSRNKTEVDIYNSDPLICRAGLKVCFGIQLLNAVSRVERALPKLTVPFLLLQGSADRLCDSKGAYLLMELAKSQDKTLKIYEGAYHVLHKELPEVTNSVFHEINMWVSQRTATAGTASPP

[2] = molecular target: T2, Lysophosphatidylserine lipase ABHD12 (Homo sapiens) (UniProt Q8N2K0); test: Inhibition of human ABHD12 overexpressed in HEK293 cells assessed as 2-AG hydrolysis at 1 uM by fluorescent glycerol assay; assay type: cell-based
T2 sequence (whole entry): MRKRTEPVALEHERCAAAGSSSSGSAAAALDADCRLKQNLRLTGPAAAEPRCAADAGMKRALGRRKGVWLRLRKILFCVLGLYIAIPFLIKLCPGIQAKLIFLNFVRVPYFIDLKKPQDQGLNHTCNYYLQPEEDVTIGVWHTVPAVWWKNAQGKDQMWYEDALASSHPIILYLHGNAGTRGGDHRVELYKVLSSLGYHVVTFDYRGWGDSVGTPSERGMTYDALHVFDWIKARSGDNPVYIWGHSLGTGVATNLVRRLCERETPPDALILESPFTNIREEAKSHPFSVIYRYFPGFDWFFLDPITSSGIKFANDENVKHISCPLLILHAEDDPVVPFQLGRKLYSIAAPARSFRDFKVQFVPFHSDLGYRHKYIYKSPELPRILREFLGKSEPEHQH

[3] = molecular target: T3, Fatty-acid amide hydrolase 1 (Homo sapiens) (UniProt O00519); test: Inhibition of human recombinant FAAH overexpressed in African green monkey COS7 cells using [3H]-anandamide as substrate at 10 uM preincubated for 10 mins before substrate addition measured after 10 mins by liquid scintillation counting analysis relative to control; assay type: cell-based; details: COS-7
T3 sequence (whole entry): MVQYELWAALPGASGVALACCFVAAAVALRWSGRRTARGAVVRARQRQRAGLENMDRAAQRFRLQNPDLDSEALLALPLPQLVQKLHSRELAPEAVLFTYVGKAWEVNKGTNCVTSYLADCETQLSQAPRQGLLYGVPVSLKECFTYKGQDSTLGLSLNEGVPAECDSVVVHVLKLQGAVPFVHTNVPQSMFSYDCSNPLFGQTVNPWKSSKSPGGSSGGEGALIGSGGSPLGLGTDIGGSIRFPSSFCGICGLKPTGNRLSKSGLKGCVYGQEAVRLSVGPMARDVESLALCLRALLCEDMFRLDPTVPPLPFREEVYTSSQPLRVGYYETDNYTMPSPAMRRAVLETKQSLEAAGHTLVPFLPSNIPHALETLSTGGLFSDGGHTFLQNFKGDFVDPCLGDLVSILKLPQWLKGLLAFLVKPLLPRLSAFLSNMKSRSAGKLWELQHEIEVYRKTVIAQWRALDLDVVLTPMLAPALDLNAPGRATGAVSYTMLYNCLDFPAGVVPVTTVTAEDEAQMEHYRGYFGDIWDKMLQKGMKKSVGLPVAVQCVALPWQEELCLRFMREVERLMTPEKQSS

[4] = molecular target: T4, Monoacylglycerol lipase ABHD6 (Homo sapiens) (UniProt Q9BV23); test: Inhibition of human ABHD6 overexpressed in HEK293 cells assessed as 2-AG hydrolysis at 1 uM by fluorescent glycerol assay; assay type: cell-based
T4 sequence (whole entry): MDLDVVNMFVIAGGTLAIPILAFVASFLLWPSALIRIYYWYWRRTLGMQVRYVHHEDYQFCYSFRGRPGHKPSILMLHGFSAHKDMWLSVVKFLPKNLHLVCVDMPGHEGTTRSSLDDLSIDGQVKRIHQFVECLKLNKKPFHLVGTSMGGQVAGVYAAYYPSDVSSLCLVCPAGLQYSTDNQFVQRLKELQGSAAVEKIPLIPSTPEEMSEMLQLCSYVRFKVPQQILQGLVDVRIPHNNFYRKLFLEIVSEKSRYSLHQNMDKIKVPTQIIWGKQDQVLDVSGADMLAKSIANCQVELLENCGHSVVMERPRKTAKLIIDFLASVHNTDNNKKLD

[5] = molecular target: T5, Fatty-acid amide hydrolase 1 (Homo sapiens, UniProt O00519); test: Inhibition of human recombinant FAAH overexpressed in African green monkey COS7 cells using [3H]-anandamide as substrate preincubated for 10 mins before substrate addition measured after 10 mins by liquid scintillation counting analysis; assay type: cell-based, COS-7
T5 sequence (O00519 whole entry): T3 sequence (whole entry)

[6] = molecular target: Cannabinoid receptor 1 (Rattus norvegicus) (UniProt P20272); test: Agonist activity at CB1 receptor in rat cerebellar membranes up to 10 uM incubated for 10 mins prior to testing by [35S]GTPgammaS binding assay; assay type: functional, cell membranes; details: Cerebellum, Membrane
[7] = molecular target: T3, Fatty-acid amide hydrolase 1 (Homo sapiens); test: Inhibition of human recombinant FAAH overexpressed in African green monkey COS7 cells using [3H]-anandamide as substrate at 3 to 30 uM preincubated for 10 to 60 mins by liquid scintillation counting analysis; assay type: cell-based; details: COS-7
[8] = molecular target: Cannabinoid receptor 2 (Homo sapiens) (UniProt P34972); test: Agonist activity at human CB2 receptor expressed in CHO cell membranes up to 10 uM incubated for 10 mins prior to testing by [35S]GTPgammaS binding assay; assay type: functional
[9] = molecular target: Cannabinoid receptor 1 (Rattus norvegicus) (UniProt P20272); test: Antagonist activity at CB1 receptor in rat cerebellar membranes assessed as HU210-evoked response up to 10 uM incubated for 10 mins prior to testing by [35S]GTPgammaS binding assay; assay type: functional, cell membranes; details: Cerebellum, Membrane
[10] = molecular target: T3, Fatty-acid amide hydrolase 1 (Homo sapiens); test: Inhibition of human recombinant FAAH overexpressed in African green monkey COS7 cells using [3H]-anandamide as substrate at 10 to 300 uM preincubated for 10 to 60 mins by liquid scintillation counting analysis; assay type: cell-based; details: COS-7
[11] = molecular target: T3, Fatty-acid amide hydrolase 1 (Homo sapiens); test: Inhibition of human recombinant FAAH overexpressed in African green monkey COS7 cells using [3H]-anandamide as substrate at 10 to 100 uM preincubated for 10 to 60 mins by liquid scintillation counting analysis; assay type: cell-based; details: COS-7
[12] = molecular target: T3, Fatty-acid amide hydrolase 1 (Homo sapiens); test: Noncompetitive inhibition of human recombinant FAAH overexpressed in African green monkey COS7 cells using anandamide as substrate assessed as decrease in Vmax of substrate hydrolysis preincubated for 10 mins before substrate addition measured after 10 mins by HPLC analysis; details: COS-7
[13] = molecular target: T3, Fatty-acid amide hydrolase 1 (Homo sapiens); test: Reversible inhibition of human recombinant FAAH overexpressed in African green monkey COS7 cells using […] as substrate assessed as recovery of enzyme activity at 20 x IC50 preincubated for 60 mins followed by 500 fold dilution measured after 10 mins by HPLC analysis; assay type: cell-based; details: COS-7
Monoglyceride lipase = molecular target: T6, Monoglyceride lipase (Homo sapiens, UniProt Q99685); test: Inhibition of human recombinant MAGL overexpressed in HEK cells using 2-AG as substrate preincubated for 10 mins before substrate addition measured after 10 mins by HPLC analysis; assay type: cell-based, HEK293
T6 sequence (Q99685 whole entry): T1 sequence (whole entry)

[14] = molecular target: T7, Prostaglandin G/H synthase 1 (Ovis aries) (UniProt P05979); test: Inhibition of ovine COX-1 using arachidonic acid as substrate assessed as oxygen consumption at 30 uM measured within 10 to 50 secs
T7 sequence (whole entry): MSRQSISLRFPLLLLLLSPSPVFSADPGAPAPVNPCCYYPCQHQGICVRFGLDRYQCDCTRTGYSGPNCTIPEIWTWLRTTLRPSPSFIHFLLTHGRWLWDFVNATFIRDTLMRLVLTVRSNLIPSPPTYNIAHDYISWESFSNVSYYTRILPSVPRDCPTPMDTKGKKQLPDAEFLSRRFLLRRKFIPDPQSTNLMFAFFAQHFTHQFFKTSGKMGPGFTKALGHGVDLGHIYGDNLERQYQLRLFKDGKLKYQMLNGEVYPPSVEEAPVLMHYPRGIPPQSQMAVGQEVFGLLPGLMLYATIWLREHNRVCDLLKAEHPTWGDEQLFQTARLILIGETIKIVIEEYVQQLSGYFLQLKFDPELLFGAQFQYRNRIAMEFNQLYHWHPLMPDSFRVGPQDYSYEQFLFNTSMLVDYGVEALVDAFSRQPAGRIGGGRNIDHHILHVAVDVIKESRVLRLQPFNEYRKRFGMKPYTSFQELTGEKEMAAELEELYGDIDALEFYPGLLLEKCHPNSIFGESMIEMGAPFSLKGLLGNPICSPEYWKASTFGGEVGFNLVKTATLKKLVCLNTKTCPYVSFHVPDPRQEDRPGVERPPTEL

Sequence of Cannabinoid receptor 1 (Rattus norvegicus) (P20272 whole entry): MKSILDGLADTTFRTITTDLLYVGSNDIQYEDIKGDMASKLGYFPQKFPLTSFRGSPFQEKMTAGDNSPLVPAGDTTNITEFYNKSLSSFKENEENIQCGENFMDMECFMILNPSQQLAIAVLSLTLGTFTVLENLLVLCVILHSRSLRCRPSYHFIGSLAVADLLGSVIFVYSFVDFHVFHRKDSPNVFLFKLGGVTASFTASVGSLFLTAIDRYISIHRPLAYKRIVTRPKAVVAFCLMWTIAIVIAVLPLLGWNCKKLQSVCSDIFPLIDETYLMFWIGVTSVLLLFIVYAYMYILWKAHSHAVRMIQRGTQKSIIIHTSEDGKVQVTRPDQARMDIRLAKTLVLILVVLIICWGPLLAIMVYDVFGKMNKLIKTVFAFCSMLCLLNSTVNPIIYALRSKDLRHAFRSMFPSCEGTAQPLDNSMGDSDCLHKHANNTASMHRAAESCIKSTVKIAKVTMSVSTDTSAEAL
Sequence of Cannabinoid receptor 2 (Homo sapiens) (P34972 whole entry): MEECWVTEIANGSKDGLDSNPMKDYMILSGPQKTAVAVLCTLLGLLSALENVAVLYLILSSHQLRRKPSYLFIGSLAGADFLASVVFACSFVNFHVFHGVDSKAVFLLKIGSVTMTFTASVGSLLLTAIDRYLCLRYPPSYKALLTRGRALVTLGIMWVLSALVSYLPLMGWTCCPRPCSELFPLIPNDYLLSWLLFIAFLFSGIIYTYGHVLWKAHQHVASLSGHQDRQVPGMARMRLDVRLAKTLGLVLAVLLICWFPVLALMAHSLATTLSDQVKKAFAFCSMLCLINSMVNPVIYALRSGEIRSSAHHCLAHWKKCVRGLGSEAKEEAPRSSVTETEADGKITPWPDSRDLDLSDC

SMILES	inhibition [1]	inhibition [2]	inhibition [4]	IC50 ([5]; read-out: IC50) [µM]	IC50 ([5]; read-out: pIC50 (converted)) [µM]	other results
COc1nn(C(c2ccccc2)c2ccccc2)c(=O)o1	inactive	inactive	inactive	–	–	inhibition [3]: inactive
COc1nn(C(C)c2cccc(-c3ccccc3)c2)c(=O)o1 (stereo not given)	42%	inactive	inactive	1.2	1.17	–
COc1nn([C@H](C)c2ccc(-c3ccccc3)cc2)c(=O)o1	49%	inactive	inactive	3	2.88	–
COc1nn(Cc2ccccc2Oc2ccccc2)c(=O)o1	inactive	inactive	inactive	6.3	6.31	–
COc1nn([C@@H](C)c2ccc(-c3ccccc3)cc2)c(=O)o1	18%	inactive	inactive	0.023	0.0234	Activity [6]: inactive; inhibition [7]: Active; Activity [8]: inactive; Activity [9]: inactive; inhibition [10]: Active; inhibition [11]: Active; inhibition [12]: Dose-dependent effect; inhibition [13]: Active
COc1nn(C(C)c2ccc(Oc3ccccc3)cc2)c(=O)o1 (stereo not given)	–	inactive	inactive	0.034	0.0339	IC50 (Monoglyceride lipase; read-out: IC50): 2 µM
COc1nn(Cc2ccccc2)c(=O)o1	inactive	inactive	inactive	–	–	inhibition [3]: inactive
COc1nn([C@@H](C)c2ccc(N(c3ccccc3)c3ccccc3)cc2)c(=O)o1	41%	inactive	inactive	0.098	0.1	inhibition [7]: Active; inhibition [10]: Active; inhibition [11]: Active; inhibition [12]: Dose-dependent effect; inhibition [13]: Active
COc1nn(C(C)c2ccc(CC(C)C)cc2)c(=O)o1 (racemic)	48%	inactive	inactive	0.023	0.0229	–
COc1nn(C(C)C)c(=O)o1	6%	inactive	inactive	–	–	inhibition [3]: 12%
COc1nn(C(C)c2cccc(Oc3ccccc3)c2)c(=O)o1 (stereo not given)	14%	inactive	inactive	5.2	5.25	–
COc1nn(C2CCCCC2)c(=O)o1	inactive	inactive	inactive	–	–	inhibition [3]: 40%
CC(C(=O)O)c1ccc(-c2ccccc2)c(F)c1 (stereo not given)	–	–	–	–	–	inhibition [14]: Active
COc1nn([C@H](C)c2ccc(N(c3ccccc3)c3ccccc3)cc2)c(=O)o1	–	inactive	inactive	6.3	6.17	IC50 (Monoglyceride lipase; read-out: IC50): 0.35 µM; IC50 (Monoglyceride lipase; read-out: pIC50 (converted)): 0.339 µM
COc1nn(C(C)c2ccc(-c3ccccc3)cc2)c(=O)o1 (racemic)	34%	inactive	inactive	0.048	0.0468	–
COc1nn(Cc2cccc(Oc3ccccc3)c2)c(=O)o1	15%	inactive	inactive	0.98	0.977	–
COc1nn(Cc2ccc(Oc3ccccc3)cc2)c(=O)o1	–	inactive	inactive	–	0.1	IC50 (Monoglyceride lipase; read-out: IC50): 0.4 µM; IC50 ([5]; cos-7, read-out: IC50): 0.1 µM
COc1nn(Cc2ccc(-c3ccccc3)cc2)c(=O)o1	–	inactive	inactive	0.16	0.162	IC50 (Monoglyceride lipase; read-out: IC50): 1.6 µM
COc1nn(C(C)c2ccccc2)c(=O)o1 (stereo not given)	inactive	inactive	inactive	6	6.03	–
COc1nn(Cc2cccc(-c3ccccc3)c2)c(=O)o1	32%	inactive	inactive	–	–	inhibition [3]: 46%
COc1nn(Cc2ccc(CC(C)C)cc2)c(=O)o1	–	inactive	inactive	0.091	0.0891	IC50 (Monoglyceride lipase; read-out: IC50): 1.3 µM
COc1nn(Cc2ccc(N(c3ccccc3)c3ccccc3)cc2)c(=O)o1	–	inactive	inactive	0.47	0.457	IC50 (Monoglyceride lipase; read-out: IC50): 0.26 µM
